In ChEMBL document CHEMBL1201862, “PubChem BioAssay data set” (2004):
Calls of active or inactive are those of the source. For most assays here, no stated cut-off is given here; in the data, actives have a measured EC50 and inactives only a lower limit.

Experiments:
cells = type: functional, cell-based
[1] = system: Streptococcus sp. 'group A'; test: Streptococcus pyogenes SK(-)GAS viability under kanamycin – luminescence, BacTiterGlo, confirmation, counter-screen for streptokinase expression inhibitor project, dose response (AID 1900); type: functional, organism-based
[2] = target: T1, Serine/threonine-protein phosphatase (Candida dubliniensis (strain CD36 / CBS 7987 / NCPF 3949 / NRRLY-17841) (Yeast), UniProt B9W6M3); test: blockers of CaCl2-induced CDRE-lacZ signaling – S. cerevisiae, luminescence, secondary, dose response (AID 2388); type: functional, cell-based;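 further: yeast reporter cells carrying a calcineurin-responsive lacZ construct stimulated with calcium chloride; luminescent beta-galactosidase reporter signal in whole cells rather than isolated phosphatase activity; potency for inhibition where a drop in reporter signal means calcineurin blockade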
T1 sequence (B9W6M3 whole entry): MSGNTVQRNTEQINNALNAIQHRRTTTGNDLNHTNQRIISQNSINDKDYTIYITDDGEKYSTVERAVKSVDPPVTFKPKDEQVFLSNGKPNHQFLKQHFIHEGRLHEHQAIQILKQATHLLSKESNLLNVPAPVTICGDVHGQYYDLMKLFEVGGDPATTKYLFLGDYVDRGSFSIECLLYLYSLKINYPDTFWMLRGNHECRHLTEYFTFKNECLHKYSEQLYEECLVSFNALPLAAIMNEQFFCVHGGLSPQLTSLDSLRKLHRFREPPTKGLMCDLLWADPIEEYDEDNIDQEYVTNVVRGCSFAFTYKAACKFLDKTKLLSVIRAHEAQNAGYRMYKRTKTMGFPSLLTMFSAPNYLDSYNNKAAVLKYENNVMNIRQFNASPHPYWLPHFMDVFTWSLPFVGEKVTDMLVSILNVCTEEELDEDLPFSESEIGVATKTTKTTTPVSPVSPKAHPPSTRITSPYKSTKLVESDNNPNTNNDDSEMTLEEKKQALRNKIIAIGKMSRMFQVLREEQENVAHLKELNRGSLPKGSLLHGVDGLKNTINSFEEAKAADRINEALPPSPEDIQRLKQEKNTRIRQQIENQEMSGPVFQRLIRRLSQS

Streptokinase A = target: T2, Streptokinase A (Streptococcus pyogenes serotype M1, UniProt P10520); test: viability-normalized secreted streptokinase activity reduction – plasminogen activation absorbance, OD405, dose response (AID 1914); type: functional, Streptococcus pyogenes M1 GAS;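 further: secreted streptokinase activity via plasminogen activation per viability signal from cell pellet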
T2 sequence (P10520 whole entry): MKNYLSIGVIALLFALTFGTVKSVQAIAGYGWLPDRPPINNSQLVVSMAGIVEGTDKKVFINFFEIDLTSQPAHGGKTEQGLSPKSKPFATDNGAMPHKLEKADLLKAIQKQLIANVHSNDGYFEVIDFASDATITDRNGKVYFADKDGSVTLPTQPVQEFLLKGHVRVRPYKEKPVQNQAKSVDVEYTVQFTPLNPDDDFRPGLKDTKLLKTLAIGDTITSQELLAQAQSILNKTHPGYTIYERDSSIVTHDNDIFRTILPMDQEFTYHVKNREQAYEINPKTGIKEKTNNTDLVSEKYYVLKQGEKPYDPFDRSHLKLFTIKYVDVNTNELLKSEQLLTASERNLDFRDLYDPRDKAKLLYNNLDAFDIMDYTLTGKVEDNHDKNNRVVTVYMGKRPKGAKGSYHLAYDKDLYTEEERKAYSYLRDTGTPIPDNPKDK

Streptococcus = test: GAS UMAA2166 growth inhibition – luminescence, BacTiterGlo, counter-screen for streptokinase expression inhibitor project, dose response (AID 1915); type: functional, organism-based;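 further: potency for reduction of bacterial viability or growth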
[3] = Counterscreen for AddAB inhibitors: absorbance-based bacterial cell-based high throughput dose response assay for inhibitors of bacterial viability. [Related pubchem assays (depositor defined):AID435030, AID449728, AID449731, AID488942, AID488955, AID488956]; type: functional
[4] = target: Kappa-type opioid receptor (Homo sapiens, UniProt P41145); type: functional
[5] = target: T3, Heat shock factor protein 1 (Mus musculus, UniProt P38532); test: decrease of HSF1-responsive luciferase luminescence – cell-based, NIH3T3, dose retest, confirmation (AID 2382); type: functional;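 further: NIH3T3 fibroblasts with HSF1-driven luciferase reporter stressed by proteasome inhibitor MG132; luminescence from HSF1-driven luciferase expression after 8 hours of MG132 stress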
T3 sequence (P38532 whole entry): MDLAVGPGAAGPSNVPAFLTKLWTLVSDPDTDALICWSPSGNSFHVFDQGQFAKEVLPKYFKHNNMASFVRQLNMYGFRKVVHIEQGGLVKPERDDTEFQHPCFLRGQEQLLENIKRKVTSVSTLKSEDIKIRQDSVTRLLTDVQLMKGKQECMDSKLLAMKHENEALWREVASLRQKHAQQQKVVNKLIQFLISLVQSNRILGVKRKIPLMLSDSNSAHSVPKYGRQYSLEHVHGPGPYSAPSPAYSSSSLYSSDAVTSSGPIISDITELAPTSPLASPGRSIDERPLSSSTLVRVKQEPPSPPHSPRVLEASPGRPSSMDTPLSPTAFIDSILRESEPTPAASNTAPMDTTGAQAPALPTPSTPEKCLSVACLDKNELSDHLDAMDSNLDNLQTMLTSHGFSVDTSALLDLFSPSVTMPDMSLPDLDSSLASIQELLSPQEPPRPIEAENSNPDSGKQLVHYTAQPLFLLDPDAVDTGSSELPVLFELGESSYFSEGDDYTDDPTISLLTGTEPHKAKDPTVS

[6] = target: T4, Delta-type opioid receptor (Homo sapiens, UniProt P41143); test: HTS Image-Based Screen for Antagonists of the DOR Receptor. [Related pubchem assays (depositor defined):AID1777, AID1785, AID1786, AID2133]; type: functional
[7] = Trypanosoma cruzi growth suppression in host cells – NIH3T3 host cells, beta-gal luminescence, confirmation (AID 2044); type: functional, cell-based;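 further: intracellular parasites grown in NIH/3T3 mouse fibroblasts as host cells; luminescent beta-galactosidase reporter signal from transgenic T. cruzi replicating inside host cells; inhibitors lower the luminescence signal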
Mu-type opioid receptor = Mu-type opioid receptor (Homo sapiens, UniProt P35372); test: HTS Image-Based Screen for Agonists of the MOR Receptor. [Related pubchem assays (depositor defined):AID1777, AID1785, AID1786, AID2133]; type: functional;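 further: imaging of beta-arrestin GFP recruitment into spots after receptor activation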
[8] = target: T4, Delta-type opioid receptor; test: HTS Image-Based Screen for Agonists of the DOR Receptor. [Related pubchem assays (depositor defined):AID1777, AID1786, AID2133]; type: functional
[9] = Luminescence Cell-Based Dose Response HTS to Identify Inhibitors of 5'UTR Stem-Loop Driven Prion Protein mRNA Translation in H4 Neuroglioblastoma Cells. [Related pubchem assays: 1827 (Project Summary), 1813 (Primary HTS)]; type: functional

T4 sequence (P41143 whole entry): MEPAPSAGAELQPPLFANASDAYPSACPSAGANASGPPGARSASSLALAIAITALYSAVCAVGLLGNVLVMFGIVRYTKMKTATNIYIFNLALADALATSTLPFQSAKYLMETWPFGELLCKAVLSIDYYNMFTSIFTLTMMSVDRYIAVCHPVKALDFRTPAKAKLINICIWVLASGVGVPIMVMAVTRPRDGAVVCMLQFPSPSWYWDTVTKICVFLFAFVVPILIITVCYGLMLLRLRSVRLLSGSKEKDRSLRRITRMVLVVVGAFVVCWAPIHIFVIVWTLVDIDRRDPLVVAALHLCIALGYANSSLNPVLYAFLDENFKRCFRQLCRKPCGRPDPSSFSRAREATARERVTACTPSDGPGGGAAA
Chain of Kappa-type opioid receptor (P41145 whole entry): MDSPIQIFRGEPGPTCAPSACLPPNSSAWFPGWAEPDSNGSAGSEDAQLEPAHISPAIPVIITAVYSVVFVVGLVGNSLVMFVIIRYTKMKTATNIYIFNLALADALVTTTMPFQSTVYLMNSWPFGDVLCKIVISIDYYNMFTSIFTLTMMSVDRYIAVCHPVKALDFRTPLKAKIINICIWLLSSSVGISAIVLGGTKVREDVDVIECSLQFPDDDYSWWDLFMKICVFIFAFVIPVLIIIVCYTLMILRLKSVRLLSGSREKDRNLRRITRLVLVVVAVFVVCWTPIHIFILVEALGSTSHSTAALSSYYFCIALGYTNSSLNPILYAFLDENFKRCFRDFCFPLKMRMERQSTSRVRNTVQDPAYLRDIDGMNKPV
Chain of Mu-type opioid receptor (P35372 whole entry): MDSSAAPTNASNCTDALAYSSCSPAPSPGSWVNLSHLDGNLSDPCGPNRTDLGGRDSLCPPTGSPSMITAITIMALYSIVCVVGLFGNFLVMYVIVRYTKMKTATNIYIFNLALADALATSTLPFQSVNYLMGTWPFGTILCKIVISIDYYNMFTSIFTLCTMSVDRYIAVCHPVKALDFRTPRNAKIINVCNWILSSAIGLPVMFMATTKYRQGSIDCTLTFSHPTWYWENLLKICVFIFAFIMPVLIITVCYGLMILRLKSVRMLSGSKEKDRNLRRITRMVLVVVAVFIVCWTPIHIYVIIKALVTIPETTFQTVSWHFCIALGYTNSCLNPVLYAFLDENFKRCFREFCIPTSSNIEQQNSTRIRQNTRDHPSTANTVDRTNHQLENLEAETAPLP

Row | Compound | EC50 (cells) | EC50 [1] | EC50 [2] | EC50 (Streptokinase A) | EC50 (Streptococcus) | IC50 [3] | IC50 [4] | EC50 [5] | IC50 [6] | EC50 [7] | EC50 (Mu-type opioid receptor) | EC50 [8] | EC50 [9]
1 | Cc1ccc(C)c(S(=O)(=O)N2CCN(Cc3ccc(O)c4ncccc34)CC2)c1 | > 350 µM (not active) | 6.87 µM (active) | 36 µM (active) | > 150 µM (not active) | 15 µM (active) | > 119 µM (inactive) | – | – | – | – | – | – | –
2 | COc1cc(NC(=O)Cn2ncc(Cl)c(Cl)c2=O)c(C)cc1[N+](=O)[O-] | – | – | – | – | – | – | 13.9 µM | 4.33 µM (active) | > 32 µM (inactive) | 2.39 µM (active) | > 32 µM (inactive) | > 32 µM (inactive) | 9.83 µM (active)
